For data set [1], the target named is T1, ABCB1 (Homo sapiens, UniProt P08183). Nature of the data set: Cell and fluorescent imaging-based ABCB1-mediated efflux assay (IncuCyte FLR) in KB-V1 cells.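 As to all read-outs here: ABCB1-overexpressing KB-V1 cells, live-cell fluorescence imaging of retained calcein (from calcein AM) or MitoTracker Green FM, no preincubation with inhibitor, XR9576 as positive control, calcein AM alone as background.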 The conditions noted are these: for inhibition at 10 µM: human.
T1 sequence (P08183 whole entry): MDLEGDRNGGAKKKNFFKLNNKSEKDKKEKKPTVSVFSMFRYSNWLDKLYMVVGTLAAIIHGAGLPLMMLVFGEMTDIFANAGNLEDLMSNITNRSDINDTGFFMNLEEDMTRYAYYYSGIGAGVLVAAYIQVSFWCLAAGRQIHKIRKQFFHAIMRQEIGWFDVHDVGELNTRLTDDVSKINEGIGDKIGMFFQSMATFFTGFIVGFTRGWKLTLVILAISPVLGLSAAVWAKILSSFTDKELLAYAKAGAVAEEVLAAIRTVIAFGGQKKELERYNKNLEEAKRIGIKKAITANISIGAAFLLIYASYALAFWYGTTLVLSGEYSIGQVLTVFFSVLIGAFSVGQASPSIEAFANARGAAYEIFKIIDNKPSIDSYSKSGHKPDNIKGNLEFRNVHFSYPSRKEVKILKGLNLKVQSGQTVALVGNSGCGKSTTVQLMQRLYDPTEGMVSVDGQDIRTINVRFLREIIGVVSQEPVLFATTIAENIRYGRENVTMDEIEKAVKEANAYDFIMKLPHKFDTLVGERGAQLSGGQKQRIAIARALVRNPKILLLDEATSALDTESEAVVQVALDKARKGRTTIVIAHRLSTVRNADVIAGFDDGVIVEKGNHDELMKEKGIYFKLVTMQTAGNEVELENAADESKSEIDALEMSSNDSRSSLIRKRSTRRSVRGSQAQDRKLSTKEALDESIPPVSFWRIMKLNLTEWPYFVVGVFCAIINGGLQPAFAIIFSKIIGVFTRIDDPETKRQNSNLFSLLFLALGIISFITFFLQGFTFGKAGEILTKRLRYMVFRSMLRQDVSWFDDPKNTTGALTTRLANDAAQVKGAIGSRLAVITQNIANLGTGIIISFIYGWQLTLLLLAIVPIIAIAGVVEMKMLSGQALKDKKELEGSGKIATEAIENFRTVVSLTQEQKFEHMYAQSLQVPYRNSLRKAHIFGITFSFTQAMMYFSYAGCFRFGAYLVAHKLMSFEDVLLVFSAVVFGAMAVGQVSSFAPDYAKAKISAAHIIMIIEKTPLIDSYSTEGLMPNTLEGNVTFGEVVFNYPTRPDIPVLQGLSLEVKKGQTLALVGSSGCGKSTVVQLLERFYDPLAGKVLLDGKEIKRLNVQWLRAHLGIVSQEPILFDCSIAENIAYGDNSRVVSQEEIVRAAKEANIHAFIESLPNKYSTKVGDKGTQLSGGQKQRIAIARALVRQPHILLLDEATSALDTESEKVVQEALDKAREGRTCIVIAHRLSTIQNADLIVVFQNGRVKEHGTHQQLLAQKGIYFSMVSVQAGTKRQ
Experimental: (§2) The cell- and fluorescent imaging-based ABCB1-mediated efflux assays were carried out using ABCB1-overexpressing KB-V1 cells and calcein AM. Calcein AM was diluted in the culture media and then added directly to the cells grown in 96- or 384-well plates at the indicated final concentrations. Additionally, MitoTracker® Green FM was used as a fluorescent substrate in the ABCB1-mediated efflux assay. […] There was no incubation time after addition of the ABCB1 inhibitors. The only time delay between the addition of the inhibitors/drugs and the addition of calcein AM was the sample handling time. […] All wells contained 0.1% DMSO; except when the drugs were serial-diluted, in which the wells with the highest drug concentration contained 0.1% DMSO and the rest of wells contained diluted DMSO from the same working stock solution. The cell culture vessels were placed in a fluorescent and phase-contrast live cell imaging system, the IncuCyte^TMFLR (Essen BioScience, Ann Arbor, MI), in a 37°C incubator supplemented with 5% CO2. Both fluorescent and phase-contrast images (750×950 µm) were taken by the IncuCyte^TMFLR at the indicated time intervals. The approximate number of cells scanned was 200–600 cells per image. Auto-fluorescence of the compounds was determined by treating the cells with the drug candidates in the absence of calcein AM and fluorescence was measured using the IncuCyte^TMFLR and a fluorescent plate reader (Infinite 200 PRO, Tecan System, Inc., San Jose, CA).
(§3) The IncuCyte^TMFLR was programmed to take 4 images per well of a 96-well plate or a single image per well of a 384-well plate. It takes 27 minutes to scan an entire 96-well plate at 4 images per well and 27 minutes to scan an entire 384-well plate at one image per well, respectively. Because intracellular accumulation of calcein is time sensitive, only 3 to 6 columns of a 96-well plate were used for a single experiment. Three positive control (XR9576) wells and three background (calcein AM only) wells were included in each 96-well plate or in each column in the 384-well plates. All experiments were repeated at least twice unless otherwise indicated.
(§4) The IncuCyte^TMFLR software provides the mean of the total fluorescence intensity (mean fluorescence intensity), obtained by averaging fluorescent intensities from all the pixels in the image(s) from each well. The automatically generated mean fluorescence intensity is not corrected for the background fluorescence, which can often lead to distorted outputs. Additional software, the Object Counting v2.0 Analysis software provided by the IncuCyte^TMFLR, can assist further quantification and analysis of the fluorescent images. Using this software, a segmentation mask was generated to separate fluorescent (foreground) and non-fluorescent (background) objects so that the sum of the fluorescent intensity of the positive cells can be calculated without the interference from the background fluorescence. The Object Summed Intensity per mm^2 from the metrix menu was chosen to indicate the background corrected fluorescent intensity of each well and designated as the object intensity.
(§5) The relative inhibition of each compound on calcein AM efflux was calculated by the following equation: [drawing 1] where X represents the mean fluorescence intensities or the object intensities, and T denotes the test compound. The final results were normalized to either the maximum values of the test compounds in the dose-response experiments or to the values from XR9576 (0.2 µM) treated cells.
Data set [2] addresses T1, ABCB1. In words: in vitro.
Experimental: as §2, §3, §4, §5
For data set [3], the target named is T1, ABCB1.
Experimental: as §2, §3, §4, §5
A short description of data set [4]: Cell viability assay (CCK-8). The conditions noted are these: human, HCT-15-Pgp cells.
Experimental: HCT-15-Pgp cells were plated and cultured in 96-well plates for 1 or 2 days, until they reached 50–80% confluency. […] Cell viability was examined using the Cell Counting Kit-8 (CCK-8, Dojindo Molecular Technologies, Inc., Rockville, MD); which functions similar to MTT assays by reduction of the tetrazolium salt, WST-8, to yield a yellow-colored and water-soluble formazan dye (measured at 450 nm).
The test system of another data set is KB-V1 cells. Nature of the data set: Cytotoxicity to KB-V1 cells seen in the imaging assay. It is filed as cell-based, human. An excerpt:
(§1) Compounds that auto-fluoresced were excluded from further analysis.

Data set [5] deals with T1, ABCB1. In words: Flow cytometry-based ABCB1-mediated efflux assay in KB-V1 cells. As to conditions: compound 5 µM, calcein AM 1 µM.
Experimental: (§6) An ABCB1-mediated calcein AM efflux assay was also performed with KB-V1 cells and evaluated by flow cytometry as described previously [32]. KB-V1 cells were detached by brief trypsin treatment, followed by addition of medium containing 10% serum to neutralize the trypsin. The detached cells were collected by centrifugation, aliquoted at 500,000 cells/tube, and incubated with the test compounds at the indicated concentrations and calcein AM (1 µM) or MitoTracker® Green FM for 10 minutes in a 37°C water bath. After incubation, the cells were collected by centrifugation at 800xg for 5 minutes and resuspended in PBS/0.1% BSA. The fluorescent substrates retained in KB-V1 cells were detected by flow cytometry (BD FACSCalibur, BD Biosciences, Franklin Lakes, NJ). The data were analyzed with FlowJo 7.2.2 (Tree Star, Inc., Ashland, OR) and presented as histograms. […] Total number of cells counted per sample was 10,000.
Data set [6] deals with T1, ABCB1. Nature of the data set: Photolabeling of ABCB1 with [125I]IAAP. In kind it is binding. On the set-up: made in house; host or cells: Hifive insect cells (crude / plasma membranes). The conditions noted are these: compound 20 µM, membranes from Hifive cells overexpressing human ABCB1, autoradiograph.
Experimental: The interaction of selected compounds with ABCB1 was assessed by an in vitro photolabeling assay as previously described [32].
In data set [7] the target is T1, ABCB1. The source holds these as a separate data set.
Experimental: as §6
Another data set relates to KB-3-1 cells. In words: Cell imaging-based calcein accumulation in parental KB-3-1 cells. The conditions noted are these: 1 µM calcein AM, 1 hour, mean fluorescence intensities. On the set-up: species or system human. As for the experimental part: ABCB1-overexpressing KB-V1 cells, previously selected and maintained with vinblastine (1 µg/ml), and the parental line, KB-3-1 cells, were cultured in DMEM supplemented with 10% FBS [26], [27], [28]. Vinblastine was removed from the KB-V1 cell culture medium 2 to 3 days before each experiment. For the efflux assay, the cells were plated at either 20,000 cells per well in 96-well (100 µl/well) or 2,500 cells per well in 384-well (40 µl/well) flat, clear bottom, white or black-walled polystyrene tissue culture plates (uncoated) (Corning Life Sciences, Tewksbury, MA) and incubated at 37°C. After the cell confluence reached 30–80% (1 to 3 days in culture), the cell and fluorescent imaging-based efflux assays were performed. The ABCB1 overexpressing HCT-15-Pgp cells, used for the cytotoxicity assays, were also cultured in DMEM supplemented with 10% FBS [29]. All cell lines were gifts from Dr. Michael M. Gottesman (NCI, Bethesda, MD).
as §1

The mark [8] stands for this setting: ABCB1-overexpressing KB-V1 cells, probe calcein AM (1 µM).

This is an account of results in publication PMC3622673, “Screening Compounds with a Novel High-Throughput ABCB1-Mediated Efflux Assay Identifies Drugs with Known Therapeutic Targets at Risk for Multidrug Resistance Interference” (PLoS ONE, 2013).

pIC50: −log10 of the molar value. Counter-ions that a name gives are not always drawn. Like-named read-outs stand apart in the source and are kept apart here.

The term inhibition denotes the share of the control response that was lost under treatment. `COc1cc2nccc(Oc3ccc(NC(=O)Nc4cc(C)on4)c(Cl)c3)c2cc1OC` [AV-951 (Tivozanib), Tivozanib]: the inhibition at 10 µM at ABCB1 [1] (setting [8]) is not below 50%. For `CN1CCN(CCOc2cc(OC3CCOCC3)c3c(Nc4c(Cl)ccc5c4OCO5)ncnc3c2)CC1` [AZD0530 (Saracatinib), Saracatinib], the inhibition at 10 µM on ABCB1 [1] (setting [8]) is not below 50%. As usually defined, the pIC50 is the negative decadic logarithm of the IC50, by convention in mol/L. Lower therefore signals a large IC50. The compound `Cn1c(=O)n(-c2ccc(C(C)(C)C#N)cc2)c2c3cc(-c4cnc5ccccc5c4)ccc3ncc21` [BEZ235] gave a pIC50 against ABCB1 [1] of 4.70. Besides, at ABCB1 [2], the inhibition at 10 µM was not below 50%. In addition, the “Inhibition of ABCB1-mediated calcein AM efflux in dose-response experiment” value at ABCB1 [3] is “dose-dependent inhibition”.

For the compound `CC[C@@H]1C(=O)N(C)c2cnc(Nc3ccc(C(=O)N[C@H]4CC[C@H](N5CCN(CC6CC6)CC5)CC4)cc3OC)nc2N1C(C)C` [BI6727], the inhibition at 10 µM on ABCB1 [1] (setting [8]) was not below 50%.

As usually defined, the IC50 is the midpoint of a concentration-inhibition curve. As for `CC[C@@H]1C(=O)N(C)c2cnc(Nc3ccc(C(=O)NC4CCN(C)CC4)cc3OC)nc2N1C1CCCC1` [BI 2536], the IC50 at 48 h in data set [4] was found to be 1.28 µM. Regarding `CN(C)C/C=C/C(=O)Nc1cc2c(Nc3ccc(F)c(Cl)c3)ncnc2cc1O[C@H]1CCOC1` [BIBW2992 (Tovok)], the inhibition at 10 µM against ABCB1 [1] is not below 50%. The compound `COc1cc(Nc2c(C#N)cnc3cc(OCCCN4CCN(C)CC4)c(OC)cc23)c(Cl)cc1Cl` [Bosutinib (SKI-606), Bosutinib] came in with an inhibition at 10 µM against ABCB1 [2] not below 50%. For `C=CC(=O)Nc1cc2c(Nc3ccc(F)c(Cl)c3)ncnc2cc1OCCCN1CCOCC1` [CI-1033 (Canertinib), Canertinib], the inhibition at 10 µM on ABCB1 [2] was not below 50%. Same read-out and setting: to `COc1cc2c(Oc3ccc4[nH]c(C)cc4c3F)ncnc2cc1OCCCN1CCCC1` [Cediranib (AZD2171), Cediranib] belongs not below 50%. Regarding `CC1(COc2ccc3c(c2)ncn3-c2ccc3cccc(N4CCC(N)CC4)c3n2)COC1` [Crenolanib (CP-868596), Crenolanib], at ABCB1 [1] (setting [8]), the inhibition at 10 µM was not below 50%. Take `C[S+](C)[O-]` [DMSO, dimethyl sulfoxide]: in the data set with KB-V1 cells (1 µM calcein AM (data not shown)), the “Concentration toxic to KB-V1 cells” value is ≥ 0.5 % (v/v).

At ABCB1 [2], `CO[C@H]1C[C@@H]2CC[C@@H](C)[C@@](O)(O2)C(=O)C(=O)N2CCCC[C@H]2C(=O)O[C@H]([C@H](C)C[C@@H]2CC[C@@H](OP(C)(C)=O)[C@H](OC)C2)CC(=O)[C@H](C)/C=C(\C)[C@@H](O)[C@@H](OC)C(=O)[C@H](C)C[C@H](C)/C=C/C=C/C=C/1C` [Deforolimus (MK-8669), Deforolimus] had an inhibition at 10 µM not below 50%. In the case of `CO[C@H]1C[C@@H]2CC[C@@H](C)[C@@](O)(O2)C(=O)C(=O)N2CCCC[C@H]2C(=O)O[C@H]([C@H](C)C[C@@H]2CC[C@@H](OCCO)[C@H](OC)C2)CC(=O)[C@H](C)/C=C(\C)[C@@H](O)[C@@H](OC)C(=O)[C@H](C)C[C@H](C)/C=C/C=C/C=C/1C` [Everolimus (RAD001), Everolimus], at ABCB1 [1] (setting [8]), the inhibition at 10 µM is not below 50%. On to `COc1ccc2c3c([nH]c2c1)[C@H](C=C(C)C)N1C(=O)[C@@H]2CCCN2C(=O)[C@@H]1C3` [FTC, fumitremorgin C], for which, at ABCB1 [5], the “Inhibition of ABCB1-mediated calcein AM efflux, flow cytometry” value is recorded as “neither ABCG2 specific inhibitor FTC nor ABCC1 specific inhibitor MK-571 interfered”. As for `C[C@@H](Oc1cc(-n2cnc3ccc(CN4CCN(C)CC4)cc32)sc1C(N)=O)c1ccccc1C(F)(F)F` [GSK461364], the inhibition at 10 µM on ABCB1 [1] (setting [8]) is not below 50%.

Regarding `COc1cc2ncnc(Nc3ccc(F)c(Cl)c3)c2cc1OCCCN1CCOCC1` [Gefitinib (Iressa), Gefitinib], the inhibition at 10 µM against ABCB1 [2] is not below 50%. `O=C(c1ccc(Nc2nccc(-c3cc4ccccc4s3)n2)cc1)N1CCC(N2CCCC2)CC1` [IKK 16]: the “Inhibition of ABCB1-mediated calcein AM efflux, flow cytometry” value at ABCB1 [5] is “inhibited”. On ABCB1 [3], the “IC50, inhibition of ABCB1-mediated calcein AM efflux” value is recorded as “cannot be calculated from the data” and the “Inhibition of ABCB1-mediated calcein AM efflux in dose-response experiment” value is on record as “dose-dependent inhibition”. Also, the “Competition with [125I]IAAP for direct binding to ABCB1” value on ABCB1 [6] is listed as “successfully competed”. For `Cc1ccc(NC(=O)c2ccc(CN3CCN(C)CC3)cc2)cc1Nc1nccc(-c2cccnc2)n1` [Imatinib (STI571), Imatinib], the inhibition at 10 µM at ABCB1 [2] is not below 50%. Same read-out and setting: to `Cc1cnc(NC(=O)Nc2cc(Br)c(C)cc2OC[C@@H]2CNCCO2)cn1` [LY2603618] belongs not below 50%. Take `CS(=O)(=O)CCNCc1ccc(-c2ccc3ncnc(Nc4ccc(OCc5cccc(F)c5)c(Cl)c4)c3c2)o1` [Lapatinib Ditosylate]: the inhibition at 10 µM on ABCB1 [1] (setting [8]) is not below 50%.

Turning to `CN(C)C(=O)CCSC(SCCC(=O)O)c1cccc(/C=C/c2ccc3ccc(Cl)cc3n2)c1` (stereo not shown) [MK-571], the “Inhibition of ABCB1-mediated calcein AM efflux, flow cytometry” value on ABCB1 [5] is “neither ABCG2 specific inhibitor FTC nor ABCC1 specific inhibitor MK-571 interfered”. On to `S=C(NCc1ccc2c(c1)OCO2)N1CCN(c2ncnc3c2oc2ccccc23)CC1` [MP-470 (Amuvatinib), Amuvatinib], for which the inhibition at 10 µM at ABCB1 [1] (setting [8]) is not below 50%. Still for that read-out and setting: to `Cc1ccc(NC(=O)c2ccc(CN3CCN(C)CC3)cc2)cc1Nc1nc(-c2cccnc2)cs1` [Masitinib (AB1010), Masitinib] belongs not below 50%.

On to `Cc1cn(-c2cc(NC(=O)c3ccc(C)c(Nc4nccc(-c5cccnc5)n4)c3)cc(C(F)(F)F)c2)cn1` [Nilotinib], for which, on ABCB1 [2], the inhibition at 10 µM is not below 50%. As to `CCOc1cc2ncc(C#N)c(Nc3ccc(F)c(Cl)c3)c2cc1NC(=O)/C=C/CN(C)C` [Pelitinib], the inhibition at 10 µM on ABCB1 [1] (setting [8]) was not below 50%. On to `CO[C@H]1C[C@@H]2CC[C@@H](C)[C@@](O)(O2)C(=O)C(=O)N2CCCC[C@H]2C(=O)O[C@H]([C@H](C)C[C@@H]2CC[C@@H](O)[C@H](OC)C2)CC(=O)[C@H](C)/C=C(\C)[C@@H](O)[C@@H](OC)C(=O)[C@H](C)C[C@H](C)/C=C/C=C/C=C/1C` [Rapamycin (Sirolimus), Rapamycin], for which the inhibition at 10 µM at ABCB1 [2] was not below 50%. On the same count and under the same terms, to `O=C(Nc1cccc(Cl)c1)Nc1ncc(CCNc2ncnc3ccsc23)s1` [SNS-314 Mesylate] belongs not below 50%; to `CO[C@H]1C[C@@H]2CC[C@@H](C)[C@@](O)(O2)C(=O)C(=O)N2CCCC[C@H]2C(=O)O[C@H]([C@H](C)C[C@@H]2CC[C@@H](OC(=O)C(C)(CO)CO)[C@H](OC)C2)CC(=O)[C@H](C)/C=C(\C)[C@@H](O)[C@@H](OC)C(=O)[C@H](C)C[C@H](C)/C=C/C=C/C=C/1C` [Temsirolimus], not below 50%; to `C=CC(=O)Nc1cccc(Oc2nc(Nc3ccc(N4CCN(C)CC4)cc3OC)ncc2Cl)c1` [WZ4002], not below 50%. For the compound `COc1cc2c(cc1OC)CN(CCc1ccc(NC(=O)c3cc(OC)c(OC)cc3NC(=O)c3cnc4ccccc4c3)cc1)CC2` [XR9576, tariquidar], in the data set on KB-V1 cells (imaging assay (not shown)), the “Concentration cytotoxic to cells” value is more than 1000 nM. In addition, the pIC50 at ABCB1 [1] was 8.14. At ABCB1 [7], the “Inhibition of MitoTracker Green FM efflux, flow cytometry” value is “blocked”. At ABCB1 [3], the “Inhibition of ABCB1-mediated calcein AM efflux in dose-response experiment” value is given as “dose-dependent inhibition”. For the same compound, the “Inhibition of MitoTracker Green FM efflux, cell imaging” value on ABCB1 [3] (human) is “inhibition on ABCB1-mediated efflux was detected”. Moreover, the “Effect on fluorescent calcein accumulation” value with KB-3-1 cells is “independent”. As to `CCC/C=C/C=C/C(=O)O[C@H]1/C(=C/C(=O)OC)C[C@H]2C[C@H]([C@@H](C)O)OC(=O)C[C@H](O)C[C@@H]3C[C@H](OC(C)=O)C(C)(C)[C@](O)(C[C@@H]4C/C(=C/C(=O)OC)C[C@H](/C=C/C(C)(C)[C@]1(O)O2)O4)O3` [bryostatin-1, Bryostatin-1], the “Inhibition of ABCB1-mediated calcein AM efflux in dose-response experiment” value on ABCB1 [1] (KB-V1 cells, 96-well plates, 1 µM calcein AM) is “failed to inhibit”. For the same compound, the “Inhibition of ABCB1-mediated calcein AM efflux, flow cytometry” value at ABCB1 [5] is on record as “failed to inhibit”. Turning to `Cc1ccc(C(=O)N(CCCN)[C@@H](c2nc3cc(Cl)ccc3c(=O)n2Cc2ccccc2)C(C)C)cc1` [ispinesib], the pIC50 on ABCB1 [1] was 5.30. Moreover, the “Inhibition of ABCB1-mediated calcein AM efflux, flow cytometry” value on ABCB1 [7] was “inhibited”. The “Inhibition of ABCB1-mediated calcein AM efflux in dose-response experiment” value on ABCB1 [3] is recorded as “dose-dependent inhibition”. For the same compound, the “Competition with [125I]IAAP for direct binding to ABCB1” value at ABCB1 [6] is on record as “marginal effect”.
